Laboratory results as given in patent US6559101B2, “N- (5, 7-dimethoxy [1, 2, 4] triazolo [1, 5-a] pyrimidin-2-yl) arylsulfonamide compounds and their use as herbicides” (Dow AgroSciences LLC, priority 2000, dated 2003).

How the values were obtained:
Format in all cases: in vivo
[1] = tested on: cocklebur (Xanthium strumarium); experiment: Preemergence herbicidal activity; conditions: scored after 3 weeks, 0 no injury, 100 complete kill or no germination
Method: (§1) The soil matrix was contained in plastic pots with a surface area of 161 square centimeters. When required to ensure good germination and healthy plants, a fungicide treatment and/or other chemical or physical treatment was applied. A weighed amount, determined by the highest rate to be tested, of each test compound was placed in a 20 mL glass vial and was dissolved in 8 mL of a 97:3 v/v (volume/volume) mixture of acetone and dimethyl sulfoxide to obtain concentrated stock solutions. […] The stock solutions obtained were diluted with a 99.9:0.1 mixture of water and Tween® 155 surfactant (ethoxylated sorbitan fatty acid ester) to obtain application solutions of known concentration. The solutions containing the highest concentration to be tested were prepared by diluting 4 mL aliquots of the stock solution with 8.5 mL of the mixture and lower concentrations were prepared by dilution of appropriate smaller portions of the stock solution. A 2.5 mL aliquot of each solution of known concentration was sprayed evenly onto the soil of each seeded pot using a Cornwall 5.0 mL glass syringe fitted with a TeeJet TN-3 hollow cone nozzle to obtain thorough coverage of the soil in each pot. Control pots were sprayed in the same manner with the aqueous mixture. A highest application rate of 4.48 kg/ha is achieved when 50 mg of test compound is employed. The treated pots and control pots were placed in a greenhouse with an approximately 15 hr photoperiod which was maintained at about 23-29° C. during the day and 22-28° C. during the night. Nutrients and water were added on a regular basis and supplemental lighting was provided with overhead metal halide 1000 Watt lamps as necessary. The water was added by top-irrigation. After 3 weeks the condition of the test plants that germinated and grew as compared with that of the untreated plants that germinated and grew was determined visually and scored on a scale of 0 to 100 percent where 0 corresponds to no injury and 100 corresponds to complete kill or no germination.

[2] = tested on: blackgrass (Alopecurus myosuroides); experiment: Preemergence herbicidal activity; conditions: scored after 3 weeks, 0 no injury, 100 complete kill or no germination
Method: as §1

[3] = tested on: velvetleaf (Abutilion theophrasti); experiment: Preemergence herbicidal activity; conditions: scored after 3 weeks, 0 no injury, 100 complete kill or no germination
Method: as §1

[4] = tested on: Rox orange sorghum (Sorghum bicolor); experiment: Preemergence herbicidal activity; conditions: scored after 3 weeks, 0 no injury, 100 complete kill or no germination
Method: as §1

[5] = tested on: barnyardgrass (Echinochloa crus-galli); experiment: Preemergence herbicidal activity; conditions: scored after 3 weeks, 0 no injury, 100 complete kill or no germination
Method: as §1

[6] = tested on: wild poinsettia (Euphorbia heterophylla); experiment: Preemergence herbicidal activity; conditions: scored after 3 weeks, 0 no injury, 100 complete kill or no germination
Method: as §1

[7] = tested on: lambsquarters (Chenopodium album); experiment: Preemergence herbicidal activity; conditions: scored after 3 weeks, 0 no injury, 100 complete kill or no germination
Method: as §1

[8] = tested on: giant foxtail (Setaria faberi); experiment: Preemergence herbicidal activity; conditions: scored after 3 weeks, 0 no injury, 100 complete kill or no germination
Method: as §1

[9] = tested on: crabgrass (Digitaria sanguinalis); experiment: Preemergence herbicidal activity; conditions: scored after 3 weeks, 0 no injury, 100 complete kill or no germination
Method: as §1

[10] = tested on: pigweed (Amaranthus retroflexus); experiment: Preemergence herbicidal activity; conditions: scored after 3 weeks, 0 no injury, 100 complete kill or no germination
Method: as §1

[11] = tested on: morningglory (Ipomoea hederacea); experiment: Preemergence herbicidal activity; conditions: scored after 3 weeks, 0 no injury, 100 complete kill or no germination
Method: as §1

wild oats (Avena fatua) [12] = experiment: Preemergence herbicidal activity; conditions: scored after 3 weeks, 0 no injury, 100 complete kill or no germination
Method: as §1

[13] = tested on: cocklebur (Xanthium strumarium); experiment: Postemergence herbicidal activity; conditions: scored after 2 weeks, 0 no injury, 100 complete kill
Method: (§2) Seeds of the desired test plant species were planted in Grace-Sierra MetroMix® 306 planting mixture, which typically has a pH of 6.0 to 6.8 and an organic matter content of about 30 percent, in plastic pots with a surface area of 64 square centimeters. When required to ensure good germination and healthy plants, a fungicide treatment and/or other chemical or physical treatment was applied. The plants were grown for 7-21 days in a greenhouse with an approximately 15 hr photoperiod which was maintained at about 23-29° C. during the day and 22-28° C. during the night. Nutrients and water were added on a regular basis and supplemental lighting was provided with overhead metal halide 1000 Watt lamps as necessary. The plants were employed for testing when they reached the first or second true leaf stage. A weighed amount of each test compound, determined by the highest rate to be tested, was placed in a 20 mL glass vial and was dissolved in 4 mL of a 97:3 v/v (volume/volume) mixture of acetone and dimethyl sulfoxide to obtain concentrated stock solutions. […] The concentrated stock solutions obtained were diluted with an aqueous mixture containing acetone, water, iso-propyl alcohol, dimethyl sulfoxide, Atplus 411F crop oil concentrate, and Triton X-155 surfactant (methylenebisdiamyl phenoxy polyethoxy ethanol) in a 48.5:39:10:1.5:1.0:0.02 v/v ratio to obtain spray solutions of known concentration. The solutions containing the highest concentration to be tested were prepared by diluting 2 mL aliquots of the stock solution with 13 mL of the mixture and lower concentrations were prepared by dilution of appropriate smaller portions of the stock solution. Approximately 1.5 mL aliquots of each solution of known concentration were sprayed evenly onto each of the test plant pots using a Devilbiss atomizer driven by compressed air pressure of 2 to 4 psi (140 to 280 kiloPascals) to obtain thorough coverage of each plant. Control plants were sprayed in the same manner with the aqueous mixture. In this test an application rate of 1 ppm results in the application of approximately 1 g/ha. The treated plants and control plants were placed in a greenhouse as described above and watered by sub-irrigation to prevent wash-off of the test compounds. After 2 weeks the condition of the test plants as compared with that of the untreated plants was determined visually and scored on a scale of 0 to 100 percent where 0 corresponds to no injury and 100 corresponds to complete kill.

[14] = tested on: blackgrass (Alopecurus myosuroides); experiment: Postemergence herbicidal activity; conditions: 15.6 ppm; scored after 2 weeks; 0 no injury, 100 complete kill
Method: as §2

[15] = tested on: velvetleaf (Abutilion theophrasti); experiment: Postemergence herbicidal activity; conditions: scored after 2 weeks, 0 no injury, 100 complete kill
Method: as §2

[16] = tested on: wild buckwheat (Polygonum convolvulus); experiment: Postemergence herbicidal activity; conditions: scored after 2 weeks, 0 no injury, 100 complete kill
Method: as §2

[17] = tested on: chickweed (Stellaria media); experiment: Postemergence herbicidal activity; conditions: scored after 2 weeks, 0 no injury, 100 complete kill
Method: as §2

viola (Viola tricolor) = experiment: Postemergence herbicidal activity; conditions: scored after 2 weeks, 0 no injury, 100 complete kill
Method: as §2

[18] = tested on: Rox orange sorghum (Sorghum bicolor); experiment: Postemergence herbicidal activity; conditions: scored after 2 weeks, 0 no injury, 100 complete kill
Method: as §2

[19] = tested on: lambsquarters (Chenopodium album); experiment: Postemergence herbicidal activity; conditions: scored after 2 weeks, 0 no injury, 100 complete kill
Method: as §2

[20] = tested on: giant foxtail (Setaria faberi); experiment: Postemergence herbicidal activity; conditions: scored after 2 weeks, 0 no injury, 100 complete kill
Method: as §2

[21] = tested on: pigweed (Amaranthus retroflexus); experiment: Postemergence herbicidal activity; conditions: scored after 2 weeks, 0 no injury, 100 complete kill
Method: as §2

[22] = tested on: morningglory (Ipomoea hederacea); experiment: Postemergence herbicidal activity; conditions: scored after 2 weeks, 0 no injury, 100 complete kill
Method: as §2

wild oats (Avena fatua) [23] = experiment: Postemergence herbicidal activity; conditions: scored after 2 weeks, 0 no injury, 100 complete kill
Method: as §2

In the case of `CCOc1nccc(C(F)(F)F)c1S(=O)(=O)Nc1nc2nc(OC)cc(OC)n2n1` [Compound 19], the “Preemergence herbicidal activity XANST” value ([1]; 35 g/Ha) is reported as 85%, the “Preemergence herbicidal activity ALOMY” value ([2]; 35 g/Ha) is reported as 100% and the “Preemergence herbicidal activity ABUTH” value ([3]; 35 g/Ha) is reported as 80%. The “Preemergence herbicidal activity SORBI” value ([4]; 35 g/Ha) was 60%, the “Preemergence herbicidal activity ECHCG” value ([5]; 35 g/Ha) was 70% and the “Preemergence herbicidal activity EPHHL” value ([6]; 35 g/Ha) was 50%. For the same molecule, the “Preemergence herbicidal activity CHEAL” value ([7]; 35 g/Ha) was 100%, the “Preemergence herbicidal activity SETFA” value ([8]; 35 g/Ha) was 30% and the “Preemergence herbicidal activity DIGSA” value ([9]; 35 g/Ha) was 80%. The “Preemergence herbicidal activity AMARE” value ([10]; 35 g/Ha) was 100%, the “Preemergence herbicidal activity IPOHE” value ([11]; 35 g/Ha) was 50% and the “Preemergence herbicidal activity AVEFA” value (wild oats (Avena fatua) [12]; 35 g/Ha) was 60%. The “Postemergence herbicidal activity XANST” value ([13]; 15.6 ppm) was 90%, the “Postemergence herbicidal activity ALOMY” value [14] was 80% and the “Postemergence herbicidal activity ABUTH” value ([15]; 15.6 ppm) was 75%. For the same molecule, the “Postemergence herbicidal activity POLCO” value ([16]; 15.6 ppm) was 90%, the “Postemergence herbicidal activity STEME” value ([17]; 15.6 ppm) was 95% and the “Postemergence herbicidal activity VIOTR” value (viola (Viola tricolor); 15.6 ppm) was 90%. The “Postemergence herbicidal activity SORBI” value ([18]; 15.6 ppm) was 50%, the “Postemergence herbicidal activity CHEAL” value ([19]; 15.6 ppm) was 95% and the “Postemergence herbicidal activity SETFA” value ([20]; 15.6 ppm) was 60%. The “Postemergence herbicidal activity AMARE” value ([21]; 15.6 ppm) was 90%, the “Postemergence herbicidal activity IPOHE” value ([22]; 15.6 ppm) was 75% and the “Postemergence herbicidal activity AVEFA” value (wild oats (Avena fatua) [23]; 15.6 ppm) was 50%.
With `CCc1ccc(OC)c(S(=O)(=O)Nc2nc3nc(OC)cc(OC)n3n2)c1` [Compound 9] the “Preemergence herbicidal activity XANST” value ([1]; 70 g/Ha) was 0%, the “Preemergence herbicidal activity ALOMY” value ([2]; 70 g/Ha) was 0% and the “Preemergence herbicidal activity ABUTH” value ([3]; 70 g/Ha) was 20%. The “Preemergence herbicidal activity SORBI” value ([4]; 70 g/Ha) was 0%, the “Preemergence herbicidal activity ECHCG” value ([5]; 70 g/Ha) was 0% and the “Preemergence herbicidal activity EPHHL” value ([6]; 70 g/Ha) was 0%. The “Preemergence herbicidal activity CHEAL” value ([7]; 70 g/Ha) was 30%, the “Preemergence herbicidal activity SETFA” value ([8]; 70 g/Ha) was 20% and the “Preemergence herbicidal activity DIGSA” value ([9]; 70 g/Ha) was 0%. For the same molecule, the “Preemergence herbicidal activity AMARE” value ([10]; 70 g/Ha) was 40%, the “Preemergence herbicidal activity IPOHE” value ([11]; 70 g/Ha) was 30% and the “Preemergence herbicidal activity AVEFA” value (wild oats (Avena fatua) [12]; 70 g/Ha) was 0%. The “Postemergence herbicidal activity XANST” value ([13]; 62.5 ppm) was 70%, the “Postemergence herbicidal activity ABUTH” value ([15]; 62.5 ppm) was 30% and the “Postemergence herbicidal activity POLCO” value ([16]; 62.5 ppm) was 50%. The “Postemergence herbicidal activity STEME” value ([17]; 62.5 ppm) was 50%, the “Postemergence herbicidal activity VIOTR” value (viola (Viola tricolor); 62.5 ppm) was 50% and the “Postemergence herbicidal activity SORBI” value ([18]; 62.5 ppm) was 30%. The “Postemergence herbicidal activity CHEAL” value ([19]; 62.5 ppm) was 80%, the “Postemergence herbicidal activity SETFA” value ([20]; 62.5 ppm) was 30% and the “Postemergence herbicidal activity AMARE” value ([21]; 62.5 ppm) was 70%. The “Postemergence herbicidal activity IPOHE” value ([22]; 62.5 ppm) was 10% and the “Postemergence herbicidal activity AVEFA” value (wild oats (Avena fatua) [23]; 62.5 ppm) was 20%.
